# Measured values as given in US6979686B1, “Substituted pyrazoles as p38 kinase inhibitors” (Pharmacia Corporation, priority 2001, dated 2005).
# pIC50: −log10 of the molar value. Like-named read-outs stand apart in the source and are kept apart here.
# Target: T1, human p38 kinase alpha (Homo sapiens, UniProt Q16539)
# T1 construct: GST (N, cleaved yes); made in house; host or cells: E. coli DH10B
# Assay: p38 kinase in vitro assay, phosphorylation of biotinylated PHAS-I with 32P-ATP
# Assay type: biochemical
# [1] = in vitro P38-alpha kinase inhibition, read-out: P38 alpha kinase IC50
# [2] = in vitro P38-alpha kinase, read-out: P38 alpha kinase IC50
# [3] = Table 8, 1% DMSO, read-out: p38α Kinase Assay IC50
# T1 sequence (Q16539 whole entry): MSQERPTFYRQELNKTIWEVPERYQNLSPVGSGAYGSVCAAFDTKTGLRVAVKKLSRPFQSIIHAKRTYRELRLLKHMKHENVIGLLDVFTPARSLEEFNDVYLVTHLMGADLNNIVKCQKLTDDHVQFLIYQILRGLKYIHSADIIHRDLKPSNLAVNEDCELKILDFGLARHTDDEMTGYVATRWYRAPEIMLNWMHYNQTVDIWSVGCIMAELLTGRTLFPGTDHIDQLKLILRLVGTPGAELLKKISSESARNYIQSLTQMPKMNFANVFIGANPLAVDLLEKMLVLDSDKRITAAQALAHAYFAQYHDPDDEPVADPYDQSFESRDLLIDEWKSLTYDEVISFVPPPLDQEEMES
pIC50 [1],pIC50 [2],Structure (SMILES),further results
6.31,–,CC(NC(=O)c1ccccn1)c1[nH]nc(-c2ccc(F)cc2)c1-c1ccncc1 (centres unmarked) [Example B-0556],–
–,–,CCOC(=O)C(CCSC)NC(=O)NCCc1[nH]nc(-c2ccc(F)cc2)c1-c1ccncc1 (centres unmarked) [Example B-0935],P38 alpha kinase % inhib @ conc. (uM) (@ 1.0 uM): 69.0% @
> 7.00,–,C[C@@H](NS(=O)(=O)c1ccc(Cl)cc1)c1[nH]nc(-c2ccc(F)cc2)c1-c1ccncc1 [Example B-0433],–
–,6.57,O=C(NCCCc1[nH]nc(-c2ccc(F)cc2)c1-c1ccncc1)c1cc2ccccc2s1 [Example B-1325],–
–,5.86,O=C(c1ccc(C(F)(F)F)cc1F)N1CCC(c2[nH]nc(-c3ccc(F)cc3)c2-c2ccncc2)CC1 [Example B-1406],–
–,–,Cc1c(-c2ccncc2)c(-c2ccc(F)cc2)nn1CC(=O)Nc1cccc(Br)c1 [Example B-2426],"P38 alpha kinase IC50, uM or % inhib @ conc. (uM): % inhib (@ 10.0 uM): 88.0% @"
–,–,CCc1cccc(CC)c1NC(=O)Cn1nc(-c2ccc(F)cc2)c(-c2ccncc2)c1C [Example B-2420],"P38 alpha kinase IC50, uM or % inhib @ conc. (uM): % inhib (@ 10.0 uM): 70.0% @"
–,–,"CS(=O)(=O)N1CCN(c2n[nH]c(-c3ccc(Cl)cc3)c2-c2ccncc2)CC1 [Example A-320, 1-[5-(4-chlorophenyl)-4-(4-pyridinyl)-1H-pyrazol-3-yl]-4-(methylsulfonyl)piperazine, monohydrate]",pIC50 [3]: 6.57
6.48,–,O=S(=O)(NC(Cc1ccccc1)c1[nH]nc(-c2ccc(F)cc2)c1-c1ccncc1)c1ccc(F)cc1 (centres unmarked) [Example B-0752],–
–,–,Cc1c(-c2ccncc2)c(-c2ccc(F)cc2)nn1CC(=O)N(Cc1ccco1)CC(C)C [Example B-2378],P38 alpha kinase % inhib @ conc. (@ 10.0 uM): 48.0% @
–,7.40,O=S(=O)(NCCCc1[nH]nc(-c2ccc(F)cc2)c1-c1ccncc1)c1cc(Cl)cc(Cl)c1O [Example B-1241],–
6.08,–,CCN(CC)C(=O)N[C@H](C)c1[nH]nc(-c2ccc(F)cc2)c1-c1ccncc1 [Example B-0420],–
–,6.38,O=C(NCCCc1[nH]nc(-c2ccc(F)cc2)c1-c1ccncc1)c1ccc(F)c(C(F)(F)F)c1 [Example B-1341],–
–,–,"CN1CCN(Cc2n[nH]c(-c3ccc(F)cc3)c2-c2ccncc2)CC1 [A-313, Step 3, 1-[[5-(4-fluorophenyl)-4-(4-pyridinyl)-1H-pyrazol-3-yl]methyl]-4-methylpiperazine]",pIC50 [3]: 7.44
–,–,O=S(=O)(NCc1[nH]nc(-c2ccc(F)cc2)c1-c1ccncc1)c1cccc2cccnc12 [Example B-0116],P38 alpha kinase % inhib @ conc. (@ 1.0 uM): 73.0% @
–,7.89,O=C(NCCCc1[nH]nc(-c2ccc(F)cc2)c1-c1ccncc1)c1cccc(Cl)c1 [Example B-1354],–
–,–,Cc1c(-c2ccncc2)c(-c2ccc(F)cc2)nn1CC(=O)N(C)CC(N)=O [Example B-2400],"P38 alpha kinase IC50, uM or % inhib @ conc. (uM): % inhib (@ 10.0 uM): 60.0% @"
–,–,Cc1[nH]nc(-c2ccc(Cl)cc2Cl)c1-c1ccncc1 [Example A-50],"pIC50 (activated human p38 kinase alpha, PHAS-I substrate, 50 μM unlabeled ATP, read-out: p38 kinase IC50): 5.64"
6.05,–,Cc1ccccc1C(=O)NC(C)c1[nH]nc(-c2ccc(F)cc2)c1-c1ccncc1 (centres unmarked) [Example B-0669],–
–,8.05,O=C(NCCCc1[nH]nc(-c2ccc(F)cc2)c1-c1ccncc1)c1c(Cl)cccc1Cl [Example B-1348],–
5.47,–,COc1ccc(S(=O)(=O)NC(Cc2ccccc2)c2[nH]nc(-c3ccc(F)cc3)c2-c2ccncc2)cc1 (centres unmarked) [Example B-0719],–
6.59,–,Cc1ccccc1S(=O)(=O)NC(C)c1[nH]nc(-c2ccc(F)cc2)c1-c1ccncc1 (centres unmarked) [Example B-0646],–
6.25,–,O=C(O)c1ccccc1S(=O)(=O)NCCc1[nH]nc(-c2ccc(F)cc2)c1-c1ccncc1 [Example B-1065],–

pIC50 [1],pIC50 [2],Structure (SMILES),further results
–,–,O=C(NCCc1[nH]nc(-c2ccc(F)cc2)c1-c1ccncc1)N1CCCC1 [Example B-1032],P38 alpha kinase % inhib @ conc. (uM) (@ 1.0 uM): 76.0% @
5.51,–,O=C(NC(Cc1ccccc1)c1[nH]nc(-c2ccc(F)cc2)c1-c1ccncc1)c1cccc(Br)c1 (centres unmarked) [Example B-0838],–
–,–,Cc1c(-c2ccncc2)c(-c2ccc(F)cc2)nn1CC(=O)Nc1ccc(Cl)nc1 [Example B-2415],"P38 alpha kinase IC50, uM or % inhib @ conc. (uM): % inhib (@ 10.0 uM): 94.0% @"
–,–,CCCN(CCC)CC(C)NC(=O)Cn1nc(-c2ccc(F)cc2)c(-c2ccncc2)c1C (centres unmarked) [Example B-2358],P38 alpha kinase % inhib @ conc. (@ 10.0 uM): 17.0% @
–,> 7.00,COc1ccc(Br)cc1S(=O)(=O)NCc1[nH]nc(-c2ccc(F)cc2)c1-c1ccncc1 [Example B-0249],–
–,5.77,Cc1c(-c2ccncc2)c(-c2ccc(F)cc2)nn1CC(=O)NCCN(C)C [Example B-2294],–
5.79,–,COc1ccc(C)cc1S(=O)(=O)NC(C)c1[nH]nc(-c2ccc(F)cc2)c1-c1ccncc1 (centres unmarked) [Example B-0647],–
–,–,Cc1c(-c2ccncc2)c(-c2ccc(F)cc2)nn1CC(=O)NC(Cc1ccccc1)c1ccccc1 (centres unmarked) [Example B-2320],P38 alpha kinase % inhib @ conc. (@ 10.0 uM): 44.0% @
5.01,–,O=C(NCc1ccccc1)NC(Cc1ccccc1)c1[nH]nc(-c2ccc(F)cc2)c1-c1ccncc1 (centres unmarked) [Example B-0725],–
6.59,–,O=S(=O)(NCCc1[nH]nc(-c2ccc(F)cc2)c1-c1ccncc1)c1cccc(C(F)(F)F)c1 [Example B-1099],–
–,–,Cc1c(-c2ccncc2)c(-c2ccc(F)cc2)nn1CC(=O)N1CCCC1 [Example B-2379],P38 alpha kinase % inhib @ conc. (@ 100.0 uM): 73.0% @
7.12,–,O=C(NCCc1[nH]nc(-c2ccc(F)cc2)c1-c1ccncc1)c1c(F)ccc(F)c1F [Example B-1131],–
–,7.10,O=S(=O)(NCCCc1[nH]nc(-c2ccc(F)cc2)c1-c1ccncc1)c1cccc2cnccc12 [Example B-1295],–
7.02,–,O=C(NCCc1[nH]nc(-c2ccc(F)cc2)c1-c1ccncc1)c1c(Cl)cccc1Cl [Example B-1147],–
5.91,–,O=C(NC(Cc1ccccc1)c1[nH]nc(-c2ccc(F)cc2)c1-c1ccncc1)C1CCC1 (centres unmarked) [Example B-0836],–
–,–,COCC(C)NC(=O)Cn1nc(-c2ccc(F)cc2)c(-c2ccncc2)c1C (centres unmarked) [Example B-2325],P38 alpha kinase % inhib @ conc. (@ 10.0 uM): 60.0% @
–,7.14,O=C(NCCCc1[nH]nc(-c2ccc(F)cc2)c1-c1ccncc1)c1c(F)cc(F)cc1F [Example B-1336],–
–,–,O=C(NCCCc1[nH]nc(-c2ccc(F)cc2)c1-c1ccncc1)c1ccncc1 [Example B-1183],P38 alpha kinase % inhib @ conc. (uM) (@ 1.0 uM): 77.0% @
6.39,–,O=S(=O)(NCCc1[nH]nc(-c2ccc(F)cc2)c1-c1ccncc1)c1ccc(S(=O)(=O)c2ccccc2)s1 [Example B-1116],–
5.77,–,C=CCNC(=O)NC(C)c1[nH]nc(-c2ccc(F)cc2)c1-c1ccncc1 (centres unmarked) [Example B-0589],–
–,–,Cc1c(-c2ccncc2)c(-c2ccc(F)cc2)nn1CC(=O)NC1CCSC1=O (centres unmarked) [Example B-2323],P38 alpha kinase % inhib @ conc. (@ 10.0 uM): 69.0% @
–,7.26,CN1CCCC1CCNC(=O)NCCCc1[nH]nc(-c2ccc(F)cc2)c1-c1ccncc1 (centres unmarked) [Example B-1315],–
5.10,–,O=C(NC(Cc1ccccc1)c1[nH]nc(-c2ccc(F)cc2)c1-c1ccncc1)c1cnc2ccccc2n1 (centres unmarked) [Example B-0828],–

pIC50 [1],pIC50 [2],Structure (SMILES),further results
5.37,–,O=C(NC(Cc1ccccc1)c1[nH]nc(-c2ccc(F)cc2)c1-c1ccncc1)c1ccc(I)cc1 (centres unmarked) [Example B-0839],–
5.92,–,CCNC(=O)NC(Cc1ccccc1)c1[nH]nc(-c2ccc(F)cc2)c1-c1ccncc1 (centres unmarked) [Example B-0743],–
–,> 7.00,COc1ccc(OC)c(S(=O)(=O)NCCCc2[nH]nc(-c3ccc(F)cc3)c2-c2ccncc2)c1 [Example B-1262],–
–,5.60,O=S(=O)(c1cc(Cl)cc(Cl)c1)N1CCC(c2[nH]nc(-c3ccc(F)cc3)c2-c2ccncc2)CC1 [Example B-1453],–
–,7.24,O=C(NCc1ccc(S(=O)(=O)NCCCc2[nH]nc(-c3ccc(F)cc3)c2-c2ccncc2)s1)c1ccccc1 [Example B-1285],–
–,> 7.00,O=[N+]([O-])c1ccccc1CS(=O)(=O)NCCCc1[nH]nc(-c2ccc(F)cc2)c1-c1ccncc1 [Example B-1247],–
–,6.00,Cc1c(-c2ccncc2)c(-c2ccc(F)cc2)nn1CC(=O)NCCc1ccc([N+](=O)[O-])cc1 [Example B-2302],–
–,–,CCCOC(=O)NCCc1[nH]nc(-c2ccc(F)cc2)c1-c1ccncc1 [Example B-1053],P38 alpha kinase % inhib @ conc. (uM) (@ 1.0 uM): 78.0% @
–,–,O=C(NCCCc1[nH]nc(-c2ccc(F)cc2)c1-c1ccncc1)c1ccccc1 [Example B-1180],P38 alpha kinase % inhib @ conc. (uM) (@ 1.0 uM): 78.0% @
5.95,–,CC(NC(=O)C1CC1)c1[nH]nc(-c2ccc(F)cc2)c1-c1ccncc1 (centres unmarked) [Example B-0538],–
–,–,Cc1c(-c2ccncc2)c(-c2ccc(F)cc2)nn1CC(=O)Nc1cc(C(F)(F)F)cc(C(F)(F)F)c1 [Example B-2425],"P38 alpha kinase IC50, uM or % inhib @ conc. (uM): % inhib (@ 10.0 uM): 79.0% @"
–,> 7.00,O=C(c1ccccc1)N1CCC(c2[nH]nc(-c3ccc(F)cc3)c2-c2ccncc2)CC1 [Example B-1385],–
–,7.46,O=C(NCCCc1[nH]nc(-c2ccc(F)cc2)c1-c1ccncc1)NCCN1CCCCC1 [Example B-1313],–
–,> 7.00,O=C(c1cccnc1)N1CCC(c2[nH]nc(-c3ccc(F)cc3)c2-c2ccncc2)CC1 [Example B-1387],–
–,7.80,O=C(c1c(Cl)cccc1Cl)N1CCC(c2[nH]nc(-c3ccc(F)cc3)c2-c2ccncc2)CC1 [Example B-1413],–
–,–,Cc1c(-c2ccncc2)c(-c2ccc(F)cc2)nn1CC(=O)NC(C)c1cccc2ccccc12 (centres unmarked) [Example B-2331],P38 alpha kinase % inhib @ conc. (@ 10.0 uM): 74.0% @
6.38,–,CC(NC(=O)c1c(F)cccc1C(F)(F)F)c1[nH]nc(-c2ccc(F)cc2)c1-c1ccncc1 (centres unmarked) [Example B-0686],–
–,7.48,O=C(c1c(F)cccc1F)N1CCC(c2[nH]nc(-c3ccc(F)cc3)c2-c2ccncc2)CC1 [Example B-1401],–
–,–,CCOC(=O)CC(C)NC(=O)Cn1nc(-c2ccc(F)cc2)c(-c2ccncc2)c1C (centres unmarked) [Example B-2343],P38 alpha kinase % inhib @ conc. (@ 10.0 uM): 43.0% @
–,–,CCCCS(=O)(=O)NCCCc1[nH]nc(-c2ccc(F)cc2)c1-c1ccncc1 [Example B-1199],P38 alpha kinase % inhib @ conc. (@ 1.0 uM): 87.0% @
–,–,O=C(NCCCc1[nH]nc(-c2ccc(F)cc2)c1-c1ccncc1)Nc1ccccc1F [Example B-1215],P38 alpha kinase % inhib @ conc. (@ 1.0 uM): 86.0% @
–,6.22,O=C(c1c(F)cccc1C(F)(F)F)N1CCC(c2[nH]nc(-c3ccc(F)cc3)c2-c2ccncc2)CC1 [Example B-1404],–
